Results: article PMC5074247 (Biopharmaceutics & Drug Disposition, 2016)
Read-outs that look alike come from different tables or passages of the source.

Experiments:
[1] = Volume of distribution at steady state after intravenous administration to rats; type: in vivo; conditions: rat, plasma
[2] = Whole‐body autoradiography of SD rats; type: in vivo, Sprague–Dawley rats; conditions: 168 h, oral 1 mg/kg, SD rat
[3] = cited from earlier work
[4] = SHRcp model ref 40; cited from earlier work
[5] = type: in vivo, Sprague–Dawley rats; conditions: all time‐points measured; oral 1 mg/kg [^14C]teneligliptin; SD rats
[6] = Tissue distribution of radioactivity in SD rats; type: in vivo, Sprague–Dawley rats; conditions: oral 1 mg/kg

Cc1cc(N2CCN([C@@H]3CN[C@H](C(=O)N4CCSC4)C3)CC2)n(-c2ccccc2)n1 [Teneligliptin, 3‐[(2S,4S)‐4‐[4‐(3‐methyl‐1‐phenyl‐1H‐pyrazol‐5‐yl)piperazin‐1‐yl]pyrrolidin‐2‐ylcarbonyl] thiazolidine]
Vd [1]: 8.9 L/kg
radioactivity in autoradiogram ([2]; kidney): relatively high level of radioactivity
radioactivity in autoradiogram ([2]; liver): low level of radioactivity
radioactivity in autoradiogram ([2]; other tissues examined): negligible radioactivity
exposure versus healthy subjects ([3]; patients with hepatic disorders ref 18): 1.59 fold
exposure versus healthy subjects ([3]; patients with renal disorders ref 17): 1.68 fold
TNF‐α expression in the aorta [4]: decreased
endothelial dysfunction [4]: attenuated
radioactive component in plasma and kidney (HPLC radiochromatogram) [5]: most abundant radioactive component
Concentration of radioactivity ([6]; Adrenal, 0.5 h): 1221.7 ± 289.0 ng eq/ml or g
Concentration of radioactivity ([6]; Adrenal, 5 h): 323.7 ± 90.7 ng eq/ml or g
Concentration of radioactivity ([6]; Adrenal, 12 h): 177.0 ± 22.7 ng eq/ml or g
Concentration of radioactivity ([6]; Adrenal, 24 h): 100.4 ± 8.8 ng eq/ml or g
Concentration of radioactivity ([6]; Adrenal, 72 h): 20.5 ± 4.3 (N.C.) ng eq/ml or g
Concentration of radioactivity ([6]; Adrenal, 168 h): 6.5 ± 4.5 (N.C.) ng eq/ml or g
Concentration of radioactivity ([6]; Aorta, 0.5 h): 488.7 ± 78.4 ng eq/ml or g
Concentration of radioactivity ([6]; Aorta, 5 h): 99.0 ± 46.0 ng eq/ml or g
Concentration of radioactivity ([6]; Aorta, 12 h): 35.7 ± 16.7 ng eq/ml or g
Concentration of radioactivity ([6]; Aorta, 24 h): 15.4 ± 5.2 ng eq/ml or g
Concentration of radioactivity ([6]; Bone, 0.5 h): 118.7 ± 22.2 ng eq/ml or g
Concentration of radioactivity ([6]; Bone, 5 h): 52.3 ± 19.9 ng eq/ml or g
Concentration of radioactivity ([6]; Bone, 12 h): 23.8 ± 7.5 ng eq/ml or g
Concentration of radioactivity ([6]; Epididymis, 0.5 h): 232.5 ± 61.7 ng eq/ml or g
Concentration of radioactivity ([6]; Epididymis, 5 h): 352.5 ± 76.0 ng eq/ml or g
Concentration of radioactivity ([6]; Epididymis, 12 h): 259.9 ± 44.4 ng eq/ml or g
Concentration of radioactivity ([6]; Epididymis, 24 h): 167.6 ± 35.4 ng eq/ml or g
Concentration of radioactivity ([6]; Epididymis, 72 h): 44.9 ± 3.8 (N.C.) ng eq/ml or g
Concentration of radioactivity ([6]; Epididymis, 168 h): 11.2 ± 3.3 (N.C.) ng eq/ml or g
Concentration of radioactivity ([6]; Heart, 0.5 h): 454.0 ± 85.0 ng eq/ml or g
Concentration of radioactivity ([6]; Heart, 5 h): 118.7 ± 34.6 ng eq/ml or g
Concentration of radioactivity ([6]; Heart, 12 h): 56.6 ± 8.9 ng eq/ml or g
Concentration of radioactivity ([6]; Heart, 24 h): 30.6 ± 2.7 ng eq/ml or g
Concentration of radioactivity ([6]; Heart, 72 h): 6.3 ± 1.1 (N.C.) ng eq/ml or g
Concentration of radioactivity ([6]; Kidney, 0.5 h): 4568.2 ± 609.1 ng eq/ml or g
Concentration of radioactivity ([6]; Kidney, 5 h): 3292.8 ± 76.8 ng eq/ml or g
Concentration of radioactivity ([6]; Kidney, 12 h): 2872.1 ± 419.4 ng eq/ml or g
Concentration of radioactivity ([6]; Kidney, 24 h): 2637.8 ± 410.3 ng eq/ml or g
Concentration of radioactivity ([6]; Kidney, 72 h): 1548.5 ± 192.3 (N.C.) ng eq/ml or g
Concentration of radioactivity ([6]; Kidney, 168 h): 606.1 ± 203.2 (N.C.) ng eq/ml or g
Concentration of radioactivity ([6]; Liver, 0.5 h): 4686.7 ± 932.3 ng eq/ml or g
Concentration of radioactivity ([6]; Liver, 5 h): 1753.2 ± 130.4 ng eq/ml or g
Concentration of radioactivity ([6]; Liver, 12 h): 814.1 ± 68.7 ng eq/ml or g
Concentration of radioactivity ([6]; Liver, 24 h): 389.5 ± 49.5 ng eq/ml or g
Concentration of radioactivity ([6]; Liver, 72 h): 250.2 ± 21.8 (N.C.) ng eq/ml or g
Concentration of radioactivity ([6]; Liver, 168 h): 92.4 ± 17.2 (N.C.) ng eq/ml or g
Concentration of radioactivity ([6]; Lung, 0.5 h): 1938.4 ± 456.7 ng eq/ml or g
Concentration of radioactivity ([6]; Lung, 5 h): 714.7 ± 116.7 ng eq/ml or g
Concentration of radioactivity ([6]; Lung, 12 h): 500.7 ± 40.2 ng eq/ml or g
Concentration of radioactivity ([6]; Lung, 24 h): 323.6 ± 46.7 ng eq/ml or g
Concentration of radioactivity ([6]; Lung, 72 h): 71.3 ± 12.9 (N.C.) ng eq/ml or g
Concentration of radioactivity ([6]; Lung, 168 h): 16.9 ± 5.9 (N.C.) ng eq/ml or g
Concentration of radioactivity ([6]; Pancreas, 0.5 h): 1253.9 ± 341.0 ng eq/ml or g
Concentration of radioactivity ([6]; Pancreas, 5 h): 298.9 ± 83.1 ng eq/ml or g
Concentration of radioactivity ([6]; Pancreas, 12 h): 107.8 ± 22.6 ng eq/ml or g
Concentration of radioactivity ([6]; Pancreas, 24 h): 50.8 ± 1.2 ng eq/ml or g
Concentration of radioactivity ([6]; Pancreas, 72 h): 8.3 ± 1.8 (N.C.) ng eq/ml or g
Concentration of radioactivity ([6]; Pancreas, 168 h): 3.4 ± 0.9 (N.C.) ng eq/ml or g
Concentration of radioactivity ([6]; Prostate, 0.5 h): 478.6 ± 167.1 ng eq/ml or g
Concentration of radioactivity ([6]; Prostate, 5 h): 169.0 ± 53.9 ng eq/ml or g
Concentration of radioactivity ([6]; Prostate, 12 h): 76.7 ± 18.8 ng eq/ml or g
Concentration of radioactivity ([6]; Prostate, 24 h): 38.6 ± 3.3 ng eq/ml or g
Concentration of radioactivity ([6]; Prostate, 72 h): 6.1 ± 1.3 (N.C.) ng eq/ml or g
Concentration of radioactivity ([6]; Prostate, 168 h): 2.2 ± 0.6 (N.C.) ng eq/ml or g
Concentration of radioactivity ([6]; Seminal vesicle, 0.5 h): 329.0 ± 105.4 ng eq/ml or g
Concentration of radioactivity ([6]; Seminal vesicle, 5 h): 133.8 ± 57.4 ng eq/ml or g
Concentration of radioactivity ([6]; Seminal vesicle, 12 h): 51.0 ± 6.3 ng eq/ml or g
Concentration of radioactivity ([6]; Seminal vesicle, 24 h): 18.7 ± 4.4 ng eq/ml or g
Concentration of radioactivity ([6]; Seminal vesicle, 72 h): 1.7 ± 2.0 (N.C.) ng eq/ml or g
Concentration of radioactivity ([6]; Skeletal muscle, 0.5 h): 242.5 ± 66.9 ng eq/ml or g
Concentration of radioactivity ([6]; Skeletal muscle, 5 h): 46.7 ± 20.1 ng eq/ml or g
Concentration of radioactivity ([6]; Skeletal muscle, 12 h): 16.7 ± 2.4 ng eq/ml or g
Concentration of radioactivity ([6]; Skeletal muscle, 24 h): 7.9 ± 1.1 ng eq/ml or g
Concentration of radioactivity ([6]; Skin, 0.5 h): 366.3 ± 77.9 ng eq/ml or g
Concentration of radioactivity ([6]; Skin, 5 h): 199.1 ± 47.5 ng eq/ml or g
Concentration of radioactivity ([6]; Skin, 12 h): 99.2 ± 14.6 ng eq/ml or g
Concentration of radioactivity ([6]; Skin, 24 h): 55.2 ± 2.9 ng eq/ml or g
Concentration of radioactivity ([6]; Skin, 72 h): 18.9 ± 1.6 (N.C.) ng eq/ml or g
Concentration of radioactivity ([6]; Skin, 168 h): 9.3 ± 3.3 (N.C.) ng eq/ml or g
Concentration of radioactivity ([6]; Spinal cord, 0.5 h): 28.2 ± 7.8 ng eq/ml or g
Concentration of radioactivity ([6]; Spinal cord, 5 h): 11.4 ± 5.8 ng eq/ml or g
Concentration of radioactivity ([6]; Spinal cord, 12 h): 4.9 ± 2.4 ng eq/ml or g
Concentration of radioactivity ([6]; Spinal cord, 24 h): 1.6 ± 1.1 ng eq/ml or g
Concentration of radioactivity ([6]; Spleen, 0.5 h): 1377.2 ± 292.1 ng eq/ml or g
Concentration of radioactivity ([6]; Spleen, 5 h): 510.7 ± 68.2 ng eq/ml or g
Concentration of radioactivity ([6]; Spleen, 12 h): 312.9 ± 31.8 ng eq/ml or g
Concentration of radioactivity ([6]; Spleen, 24 h): 217.7 ± 21.3 ng eq/ml or g
Concentration of radioactivity ([6]; Spleen, 72 h): 62.4 ± 7.3 (N.C.) ng eq/ml or g
Concentration of radioactivity ([6]; Spleen, 168 h): 17.0 ± 4.3 (N.C.) ng eq/ml or g
Concentration of radioactivity ([6]; Submaxillary gland, 0.5 h): 1009.9 ± 265.5 ng eq/ml or g
Concentration of radioactivity ([6]; Submaxillary gland, 5 h): 309.9 ± 62.2 ng eq/ml or g
Concentration of radioactivity ([6]; Submaxillary gland, 12 h): 123.7 ± 24.6 ng eq/ml or g
Concentration of radioactivity ([6]; Submaxillary gland, 24 h): 78.5 ± 12.3 ng eq/ml or g
Concentration of radioactivity ([6]; Submaxillary gland, 72 h): 18.0 ± 5.0 (N.C.) ng eq/ml or g
Concentration of radioactivity ([6]; Submaxillary gland, 168 h): 6.9 ± 2.5 (N.C.) ng eq/ml or g
Concentration of radioactivity ([6]; Testis, 0.5 h): 68.5 ± 21.6 ng eq/ml or g
Concentration of radioactivity ([6]; Testis, 5 h): 128.2 ± 41.8 ng eq/ml or g
Concentration of radioactivity ([6]; Testis, 12 h): 49.6 ± 10.4 ng eq/ml or g
Concentration of radioactivity ([6]; Testis, 24 h): 18.7 ± 2.4 ng eq/ml or g
Concentration of radioactivity ([6]; Testis, 72 h): 8.3 ± 10.2 (N.C.) ng eq/ml or g
Concentration of radioactivity ([6]; Thymus, 0.5 h): 538.8 ± 138.4 ng eq/ml or g
Concentration of radioactivity ([6]; Thymus, 5 h): 298.8 ± 61.8 ng eq/ml or g
Concentration of radioactivity ([6]; Thymus, 12 h): 181.8 ± 19.4 ng eq/ml or g
Concentration of radioactivity ([6]; Thymus, 24 h): 132.1 ± 3.9 ng eq/ml or g
Concentration of radioactivity ([6]; Thymus, 72 h): 37.5 ± 8.1 (N.C.) ng eq/ml or g
Concentration of radioactivity ([6]; Thymus, 168 h): 10.6 ± 3.3 (N.C.) ng eq/ml or g
Concentration of radioactivity ([6]; Thyroid, 0.5 h): 826.4 ± 164.2 ng eq/ml or g
Concentration of radioactivity ([6]; Thyroid, 5 h): 279.2 ± 83.8 ng eq/ml or g
Concentration of radioactivity ([6]; Thyroid, 12 h): 124.3 ± 25.9 ng eq/ml or g
Concentration of radioactivity ([6]; Thyroid, 24 h): 55.2 ± 7.4 ng eq/ml or g
time of maximum tissue concentration ([6]; large intestine): 12 h
radioactivity concentration as % of the maximum concentration ([6]; other tissues, 168 h): ≤ 3%
plasma radioactivity ([6]; plasma, 72 h): undetectable
time of maximum tissue concentration ([6]; testis, epididymis and cecum): 5 h
